Values joined by “and” are separate entries in the source; they are usually repeats but may differ in a detail not shown here. Equal values may be shown once.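 Test compounds were applied to cells in 96-well plates for 48 hours at 5 doses. Abbreviation: GI50, concentration required for 50% inhibition of growth. TGI denotes the concentration required for complete inhibition of growth.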
Assays:
Assay in all cases: NCI-60 cell line screen, 48 h
786-0 renal = tested on: 786-0 renal
A498 renal = tested on: A498 renal
ACHN renal = tested on: ACHN renal
BT-549 breast = tested on: BT-549 breast
HOP-92 NSCLC = tested on: HOP-92 NSCLC
K-562 leukemia = tested on: K-562 leukemia
OVCAR-3 ovarian = tested on: OVCAR-3 ovarian
RPMI-8226 leukemia = tested on: RPMI-8226 leukemia
SF-268 CNS = tested on: SF-268 CNS
SK-OV-3 ovarian = tested on: SK-OV-3 ovarian

SMILES	GI50 (786-0 renal) [µM]	TGI (786-0 renal)	GI50 (A498 renal) [µM]	TGI (A498 renal)	GI50 (ACHN renal) [µM]	TGI (ACHN renal) [µM]	GI50 (BT-549 breast) [µM]	TGI (BT-549 breast)	GI50 (HOP-92 NSCLC) [µM]	TGI (HOP-92 NSCLC)	GI50 (K-562 leukemia) [µM]	TGI (K-562 leukemia) [µM]	GI50 (OVCAR-3 ovarian) [µM]	TGI (OVCAR-3 ovarian)	GI50 (RPMI-8226 leukemia)	TGI (RPMI-8226 leukemia) [µM]	GI50 (SF-268 CNS) [µM]	TGI (SF-268 CNS) [µM]	GI50 (SK-OV-3 ovarian)	TGI (SK-OV-3 ovarian) [µM]
O=C(N/N=C/c1ccccc1O)c1ccccc1	0.339	1.83 µM	7.28	> 100 µM	2.08	54.2	3.6	> 100 µM	5.84	> 100 µM	3.59	> 100	0.669	> 100 µM	0.583 µM	8.52	1.07	> 100	5.14 µM	> 100
O=c1cc(/C=C/c2ccccc2)[nH]c2cc3c(cc12)OCO3		12.7 µM		9.87 µM		28.3		22 µM		14.8 µM			2.22	5.82 µM		3.18	7.12	30.4		15.9
O=C(O)[C@H](c1ccccc1)[C@@H](C(=O)O)c1ccccc1		> 100 µM		> 100 µM		> 100		> 100 µM		> 100 µM		> 100		> 100 µM		> 100		> 100		> 100
C=C1C(=O)O[C@H]2[C@H]1CC/C(C=Nc1c(N)cc(C(F)(F)F)cc1Br)=C\CC[C@@]1(C)O[C@@H]21	2.14	3.91 µM	2.03	4.8 µM	1.41	2.71	1.41	2.91 µM	1.17	2.75 µM	1.99	6.87	1.29	2.65 µM	0.399 µM	2.37	1.4	3.34	6.56 µM	18.9
Nc1ccc(/C=C/C(=O)NCc2cc3cc(-c4ccc(C(=O)N5CCC(F)(F)CC5)cc4)cc(-c4ccc(F)cc4)c3o2)cn1	40.3	> 100 µM	> 100	> 100 µM	83.9	> 100	5.95	> 100 µM	28.3	> 100 µM	0.356	> 100	> 39.1	> 100 µM	0.563 µM	> 100	> 100	> 100	> 100 µM	> 100
CC(=O)/C(=C/c1ccccc1F)C(=O)c1ccccc1		> 100 µM		> 100 µM		> 100		> 100 µM		> 100 µM				58.8 µM		44.4		> 100		> 100
Oc1ccccc1-c1nn(CNc2ccccc2Cl)c(=S)o1	> 100	> 100 µM	> 100	> 100 µM	16.8	38.5	> 100	> 100 µM	16.4	66.2 µM	> 100	> 100	89.7	> 100 µM	20.2 µM	59.6	> 100	> 100	> 100 µM	> 100
COC(=O)C1(C)Cc2cc(OC(C)=O)c(OC(C)=O)cc2N1 (configuration not stated)	24.1	62.2 µM	37.8	> 90.7 µM	3.42	19.9	4.93	22 µM	2.19	8.69 µM	3.67	> 100	6.97	23.8 µM	1.87 µM	10.6	16.1	52.6	> 87.4 µM	> 100
CC(C)(C)c1cc(C=C(C#N)C#N)cc(C(C)(C)C)c1O	0.393	10.9 µM and 16.4 µM	0.158	3.83 µM and 1.76 µM		20.2	0.141	0.875 µM and 6.78 µM	0.212	0.768 µM and 0.139 µM		> 354	0.456	29.2 µM and 3.85 µM	0.101 µM and 0.0877 µM		0.475	> 241	0.229 µM and 0.302 µM	
Cc1cc(N(CCC#N)CCC#N)ccc1/C=C(\NC(=O)/C=C/c1ccccc1)C(=O)NN		> 100 µM		> 100 µM		> 100		80.4 µM		63.7 µM		> 100		> 100 µM		> 100		> 100		> 82.6
CNC(=O)c1nn(C)c2c1C(C)(C)Cc1cnc(Nc3ccc(N4CCN(C)CC4)cc3)nc1-2	0.649	> 10 µM	0.139	0.861 µM	0.424	8.62	1.61	> 8.77 µM	0.174	> 2.35 µM	0.356	> 7.77	0.966	> 10 µM	0.475 µM	> 3.98	1.34	> 10	0.209 µM	1.54
C[C@H]1CCCC(O)C(O)[C@@H]2C[C@H](O[Si](C)(C)C(C)(C)C)C[C@H]2[C@H](O[Si](C)(C)C(C)(C)C)C(O)C(O)C(=O)O1 (some centres not stated)	10.6	22.3 µM	40.4	> 100 µM	14.4	44.7	20.1	> 100 µM			69.4	> 100	25	79.7 µM	> 100 µM	> 100	20	> 100	54.6 µM	> 100
N#CNC(N)=Nc1ccc(Cl)cc1		> 100 µM		> 100 µM		> 100		> 100 µM		> 100 µM		> 100		> 100 µM		> 100		> 100		> 100
CCCCCCCCCCCCCCCC[N+]1(C)CCOCC1	1.52	2.99 µM	3.38	21.5 µM	2.93	13.9	2.2	4.7 µM	0.499	2.64 µM			1.56	3.61 µM	1.3 µM	4.06	1.63	4.22	2.2 µM	7.36

Source: PubChem BioAssay (NCI)
